Earlier results, collected in patent publication US5162307A, “Polymer bound elastase inhibitors” (Board of Trustees of the University of Kentucky, priority 1992, dated 1992).

How the values were obtained:
[1] = in vivo
rabbits = conditions: rabbit, in vivo
guinea pigs = conditions: guinea pig, in vivo

organ weight ([1]; iv): do not induce any significant changes
total weight gain ([1]; iv): do not induce any significant changes
immune response (antigenicity) (rabbits): no evidence of an immune response
immune response (antigenicity) (guinea pigs): no evidence of an immune response
Substance: poly α, β-[N-(2-hydroxyethyl)-D,L-aspartamide] [PHEA]
effect on the biosynthetic mechanism of the serum proteins or of blood cells [1]: no adverse effect
toxicity [1]: lack toxicity
